Source: paper PMC10985088, “Synthesis and biological evaluation of echinomycin analogues as potential colon cancer agent” (Scientific Reports, 2024)
Where “and” joins values, the source holds several entries; their conditions need not be identical. Identical values can stand only once.

What was measured:
[1] = test system: SW620 cells; test: WST-8 cytotoxicity assay, SW620; conditions: for IC50: read-out: IC50 SW620, human colon cancer cell, 72 h, mean ± SE (n = 3)
Description: (§1) With a range of chromophore analogues in hand, their toxicity to SW620 cells was investigated by WST assays.
(§2) Basically, the evaluation was performed using methods previously reported by our group[20],[23]. Cytotoxic activities of compounds against MIA PaCa-2 (American Type Culture Collection), SW620 (European Collection of Authenticated Cell Cultures) were measured by WST-8 assay according to manufacturer’s protocol. Briefly, cells (1 × 10^4 cells/well) in a 96-well plate were cultured in medium (for MIA PaCa-2, D-MEM (Wako, Japan) containing 10% fetal bovine serum (Funakoshi, Japan), 100 units/mL penicillin G and 100 µg/mL streptomycin (Wako, Japan), for SW620, RPMI-1640 (Wako, Japan) containing 10% fetal bovine serum, 100 units/mL penicillin G and 100 µg/mL streptomycin) were cultured at 37 °C for 24 h under 5% CO2 atmosphere. Then, cells were treated with test compounds (final DMSO concentration was 1%) at 37 °C for 72 h under 5% CO2 atmosphere. Then, cells were treated with a solution of Cell Counting Kit-8® (Dojindo, Japan) for 3 h. After that, cell viabilities were determined based on the measurement of absorption at 450 nm of the wells by using TECAN Infinite® M200 microplate reader. The results were expressed as a percentage of the negative control (cells treated with DMSO only), and that value was fixed at 100%.

[2] = test system: MIA PaCa-2 cells; conditions: read-out: IC50 MIA PaCa-2; human pancreatic carcinoma cell, 72 h, mean ± SE (n = 3)
Description: as §1, §2

SMILES | IC50 [1] | IC50 [2] | cytotoxicity to SW620 cells (in words) [1]
CC(C)[C@H]1C(=O)OC[C@@H](NC(=O)c2cnc3ccccc3n2)C(=O)N[C@@H](C)C(=O)N(C)[C@H]2CSC[C@@H](C(=O)N1C)N(C)C(=O)[C@H](C)NC(=O)[C@H](NC(=O)c1cnc3ccccc3n1)COC(=O)[C@H](C(C)C)N(C)C2=O [Compound 2] | 26 nM and 25.6 nM | 8.1 ± 1 nM | 
CC(C)[C@H]1C(=O)OC[C@@H](NC(=O)c2ccc3ccccc3n2)C(=O)N[C@@H](C)C(=O)N(C)[C@H]2CSC[C@@H](C(=O)N1C)N(C)C(=O)[C@H](C)NC(=O)[C@H](NC(=O)c1ccc3ccccc3n1)COC(=O)[C@H](C(C)C)N(C)C2=O [Compound 4] | 20.5 ± 3.1 nM | 5.8 ± 0.9 nM | slightly better cytotoxicity than 2
CC(C)[C@H]1C(=O)OC[C@@H](NC(=O)c2cnc3ccccc3c2)C(=O)N[C@@H](C)C(=O)N(C)[C@H]2CSC[C@@H](C(=O)N1C)N(C)C(=O)[C@H](C)NC(=O)[C@H](NC(=O)c1cnc3ccccc3c1)COC(=O)[C@H](C(C)C)N(C)C2=O [Compound 5, {N-(Quinoline-3-carbonyl)-D-Ser-L-Ala-N-Boc-N-Me-L-Cys-N-Me-L-Val}2 sulfide] | 1210 ± 35 nM | 399 ± 76 nM | 
CC(C)[C@H]1C(=O)OC[C@@H](NC(=O)c2ccc3ncccc3c2)C(=O)N[C@@H](C)C(=O)N(C)[C@H]2CSC[C@@H](C(=O)N1C)N(C)C(=O)[C@H](C)NC(=O)[C@H](NC(=O)c1ccc3ncccc3c1)COC(=O)[C@H](C(C)C)N(C)C2=O [Compound 6, {N-(Quinoline-6-carbonyl)-D-Ser-L-Ala-N-Boc-N-Me-L-Cys-N-Me-L-Val}2 sulfide] | 1190 ± 187 nM | 327 ± 66 nM | 
CC(C)[C@H]1C(=O)OC[C@@H](NC(=O)c2ccc3ccccc3c2)C(=O)N[C@@H](C)C(=O)N(C)[C@H]2CSC[C@@H](C(=O)N1C)N(C)C(=O)[C@H](C)NC(=O)[C@H](NC(=O)c1ccc3ccccc3c1)COC(=O)[C@H](C(C)C)N(C)C2=O [Compound 7, {N-(Naphthalene-2-carbonyl)-D-Ser-L-Ala-N-Boc-N-Me-L-Cys-N-Me-L-Val}2 sulfide] | > 10000 nM | > 10000 nM | completely diminished activity
CC(C)[C@H]1C(=O)OC[C@@H](NC(=O)c2cc3ccccc3[nH]2)C(=O)N[C@@H](C)C(=O)N(C)[C@H]2CSC[C@@H](C(=O)N1C)N(C)C(=O)[C@H](C)NC(=O)[C@H](NC(=O)c1cc3ccccc3[nH]1)COC(=O)[C@H](C(C)C)N(C)C2=O [Compound 8, {N-(Indol-2-carbonyl)-D-Ser-L-Ala-N-Boc-N-Me-L-Cys-N-Me-L-Val}2 sulfide] | > 10000 nM | > 10000 nM | 
CC(C)[C@H]1C(=O)OC[C@@H](NC(=O)c2c[nH]c3ccccc23)C(=O)N[C@@H](C)C(=O)N(C)[C@H]2CSC[C@@H](C(=O)N1C)N(C)C(=O)[C@H](C)NC(=O)[C@H](NC(=O)c1c[nH]c3ccccc13)COC(=O)[C@H](C(C)C)N(C)C2=O [Compound 9, {N-(Indol-3-carbonyl)-D-Ser-L-Ala-N-Boc-N-Me-L-Cys-N-Me-L-Val}2 sulfide] | > 10000 nM | > 10000 nM | 
CC(C)[C@H]1C(=O)OC[C@@H](NC(=O)c2ccc3[nH]ccc3c2)C(=O)N[C@@H](C)C(=O)N(C)[C@H]2CSC[C@@H](C(=O)N1C)N(C)C(=O)[C@H](C)NC(=O)[C@H](NC(=O)c1ccc3[nH]ccc3c1)COC(=O)[C@H](C(C)C)N(C)C2=O [Compound 10, {N-(Indol-5-carbonyl)-D-Ser-L-Ala-N-Boc-N-Me-L-Cys-N-Me-L-Val}2 sulfide] | > 10000 nM | > 10000 nM | 
CC(C)[C@H]1C(=O)OC[C@@H](NC(=O)c2cnccn2)C(=O)N[C@@H](C)C(=O)N(C)[C@H]2CSC[C@@H](C(=O)N1C)N(C)C(=O)[C@H](C)NC(=O)[C@H](NC(=O)c1cnccn1)COC(=O)[C@H](C(C)C)N(C)C2=O [Compound 20, {N-(Pyradine-2carbonyl)-D-Ser-L-Ala-N-Boc-N-Me-L-Cys-N-Me-L-Val}2 sulfide] |  |  | lost their cytotoxicity
